Key:
[1] = tested on: 227-resistant mutants of M. tuberculosis H37rv; format: cell-based
[2] = tested on: M. tuberculosis H37Rv; format: cell-based
[3] = tested on: MmpL3 over- (+ATc) expressing Mtb H37Rv; format: cell-based, M. tuberculosis

SMILES | IC50 [1] | estimated frequency of resistance [2] | susceptibility shift in MmpL3 over-expressing strain [3]
O=C(Nc1ccc(Cl)c(C(F)(F)F)c1)NC1CCCCC1 [Compound 227] | 3.3 µM | 1.5 × 10^−7 | –
CC[C@@H](CO)NCCN[C@@H](CC)CO [Ethambutol] | – | – | no significant shifts
